Molecules are shown by their SMILES.

A word on the melting point: it is the temperature of the solid-liquid transition. As for `c1ccc2c(Nc3ccc4[nH]ncc4c3)nc(-c3ccc4c(c3)CCO4)nc2c1` [Example 9, 2-(2,3-dihydro-1-benzofuran-5-yl)-N-(1H-indazol-5-yl)-4-quinazolinamine], the melting point was in the range of 267 to 272 °C.

For the origin of these results see patent US7645878B2, “Process for preparing quinazoline Rho-kinase inhibitors and intermediates thereof” (Bayer Healthcare LLC, priority 2002, dated 2010).
